Laboratory results published in PMC5840146, “Structure-Activity Relationship Analysis of 3-Phenylcoumarin-Based Monoamine Oxidase B Inhibitors” (Frontiers in Chemistry, 2018).
Several values for one entry are separate records, joined by “and”; a condition that tells them apart may be missing. Identical values can stand only once. Like-named read-outs stand apart in the source and are kept apart here.

Tests used:
Type in all cases: biochemical
MAO-A = target: T1, MAO-A (Homo sapiens, UniProt P21397); assay: continuous spectrophotometric MAO-A inhibition assay; details: for MAO-A inhibition %: 100 µM, 1h
T1 construct: purchased Sigma-Aldrich
T1 sequence (P21397 1-527): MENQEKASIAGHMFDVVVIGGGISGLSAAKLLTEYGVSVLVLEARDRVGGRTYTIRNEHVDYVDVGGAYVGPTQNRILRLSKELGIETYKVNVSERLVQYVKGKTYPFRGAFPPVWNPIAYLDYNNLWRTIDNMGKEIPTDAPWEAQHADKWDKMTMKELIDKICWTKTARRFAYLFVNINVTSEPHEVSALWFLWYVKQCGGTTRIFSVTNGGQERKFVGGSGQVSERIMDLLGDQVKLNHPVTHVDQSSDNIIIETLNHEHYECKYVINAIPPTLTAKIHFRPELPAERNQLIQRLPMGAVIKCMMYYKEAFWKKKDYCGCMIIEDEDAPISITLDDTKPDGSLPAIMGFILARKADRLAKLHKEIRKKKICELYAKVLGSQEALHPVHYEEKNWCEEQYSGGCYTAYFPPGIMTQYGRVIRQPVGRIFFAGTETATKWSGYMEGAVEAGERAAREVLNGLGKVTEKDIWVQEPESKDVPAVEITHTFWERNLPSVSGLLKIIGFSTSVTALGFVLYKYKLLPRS
Description: (§1) Both monoamine oxidase A (MAO-A) and B (MAO-B) protein and the reagents for the chromogenic solution of vanillic acid (4-hydroxy-3-methoxylbenzoic acid, 97% purity), 4-aminoantipyrine (reagent grade), horseradish peroxidase and the substrate tyramine hydrochloride (minimum 99% purity) as well as the potassium phosphate buffer, which was prepared using potassium phosphate dibasic trihydrate (≥99% ReagentPlus™) and potassium phosphate monobasic (minimum 98% purity, molecular biology tested), were purchased from Sigma-Aldrich (St. Louis, MO, USA) for the spectrophotometric assay.
(§2) The protocol for continuous spectrophotometric assay (Holt et al., [1997]) was followed in the activity measurements. The assay was performed in 0.2 M potassium phosphate buffer pH 7.6 on 96-well plates (Nunc™ 96F microwell plate without a lid, Nunc A/S, Roskilde, DK) in 200 μl total volume. The chromogenic solution containing 1 mM vanillic acid, 500 μM 4-aminoantipyrine and 8 U/ml horseradish peroxidase in 0.2 M potassium phosphate buffer pH 7.6 was mixed anew for each measurement. 5 mM tyramine solution was used as the substrate. In order to determine the activity of both MAO-B and MAO-A, concentration series as duplicates were prepared. The protein was combined with the chromogenic solution and incubated 30 min at 37°C. The background signal was measured using multilabel reader (Victor^TM X4, 2030 Multilabel Reader, PerkinElmer, Waltham, MA, USA) at A490 before reaching the total 200 μl volume by adding 20 μl of tyramine to final concentration of 0.5 mM on the plate. As a result, the final concentration of the chromogenic solution on the plate was 250 μM vanillic acid, 125 μM 4-aminoantipyrine and 2 U/ml horseradish peroxide. After adding the substrate, the plates were measured 300 times every 15 s using 1 s exposure time. The device was set to 37°C for the duration of the experiment.
(§3) The experiment conditions should produce absorbance change of ~0.35 (Holt et al., [1997]). […] The same wide panel of coumarin derivatives was additionally used to analyze the MAO-A inhibition at 100 μM (Table 1, Supplementary Table S1).
(§4) The measured data was then fitted on a curve using non-linear regression with the equation for log[inhibitor] vs. response. The IC50 values were therefore determined based on the curve fit. The fitted curves are shown on –log scale in Supplementary Figures S1, S2.

recombinant human HSD1 = target: T2, recombinant human HSD1 (Homo sapiens, UniProt P14061); assay: HSD1 inhibition by HPLC with tritium labeled estrone/estradiol; details: for inhibition at 1 µM / HSD1 inhibition %: 1 μM
T2 construct: made in house; host or cells: Sf9 insect cells
T2 sequence (P14061 1-328): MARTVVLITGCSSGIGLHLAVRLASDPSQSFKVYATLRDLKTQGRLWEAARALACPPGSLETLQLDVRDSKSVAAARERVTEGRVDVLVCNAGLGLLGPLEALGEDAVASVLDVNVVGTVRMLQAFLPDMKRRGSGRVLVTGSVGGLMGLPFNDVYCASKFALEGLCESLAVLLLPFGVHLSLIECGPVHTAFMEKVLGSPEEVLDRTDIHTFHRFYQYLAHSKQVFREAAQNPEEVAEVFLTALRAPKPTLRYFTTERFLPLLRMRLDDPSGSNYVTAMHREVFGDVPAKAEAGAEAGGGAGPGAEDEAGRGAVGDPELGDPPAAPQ

MAO-B = target: T3, MAO-B (Homo sapiens, UniProt P27338); assay: continuous spectrophotometric MAO-B inhibition assay; details: for LiPE: LiPE = pIC50 - QPlogPo/w, new analogs and pargyline; for IC50: duplicates; for MAO-B inhibition %: 10 µM, 2h
T3 construct: purchased Sigma-Aldrich
T3 sequence (P27338 1-520): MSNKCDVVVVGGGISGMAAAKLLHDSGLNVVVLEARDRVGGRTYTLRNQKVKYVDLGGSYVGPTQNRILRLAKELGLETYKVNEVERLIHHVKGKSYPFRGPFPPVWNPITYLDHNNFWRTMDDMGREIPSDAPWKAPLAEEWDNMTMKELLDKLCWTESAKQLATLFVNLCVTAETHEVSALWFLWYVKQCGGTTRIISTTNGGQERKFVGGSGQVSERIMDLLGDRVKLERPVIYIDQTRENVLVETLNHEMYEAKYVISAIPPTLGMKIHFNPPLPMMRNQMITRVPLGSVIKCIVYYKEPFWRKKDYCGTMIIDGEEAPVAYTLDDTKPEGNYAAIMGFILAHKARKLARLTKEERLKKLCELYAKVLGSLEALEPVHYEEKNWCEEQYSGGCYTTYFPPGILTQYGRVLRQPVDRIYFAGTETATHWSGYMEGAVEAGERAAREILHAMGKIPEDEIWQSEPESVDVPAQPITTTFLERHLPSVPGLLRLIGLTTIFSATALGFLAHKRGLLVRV
Description: as §1, §2, §3, §4

human CYP1A2 = target: T4, human CYP1A2 (Homo sapiens, UniProt P05177); assay: CYP1A2 inhibition, 7-ethoxyresorufin fluorescence assay
T4 construct: purchased Corning Inc
T4 sequence (P05177 1-516): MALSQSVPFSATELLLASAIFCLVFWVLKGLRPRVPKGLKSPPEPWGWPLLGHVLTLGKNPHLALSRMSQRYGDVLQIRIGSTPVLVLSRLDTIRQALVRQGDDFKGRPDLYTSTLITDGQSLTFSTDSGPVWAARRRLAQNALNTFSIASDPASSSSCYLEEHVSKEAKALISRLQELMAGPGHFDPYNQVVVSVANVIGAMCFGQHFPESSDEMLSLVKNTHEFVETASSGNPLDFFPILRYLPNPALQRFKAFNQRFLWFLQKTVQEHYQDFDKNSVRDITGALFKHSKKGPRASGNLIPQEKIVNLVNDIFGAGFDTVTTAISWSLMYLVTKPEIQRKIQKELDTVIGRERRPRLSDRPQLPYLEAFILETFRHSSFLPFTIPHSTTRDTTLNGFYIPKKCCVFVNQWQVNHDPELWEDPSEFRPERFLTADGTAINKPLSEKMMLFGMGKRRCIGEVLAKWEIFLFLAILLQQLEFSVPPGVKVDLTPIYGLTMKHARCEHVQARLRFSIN
Description: Inhibition of CYP1A2 activity was determined with commercial heterologously expressed human CYP1A2 enzyme (Corning Inc., Corning, NY, USA) as described earlier (Korhonen et al., [2005]). The metabolic activity was not in the scope of this particular study. The assay was adapted to the 96-well plate format. In each well, a 150 μL incubation volume contained 100 mM Tris-HCl buffer (pH 7.4), 4.2 mM MgCl2,1 μM 7-ethoxyresorufin, 0.5 pmol of cDNA expressed CYP1A2, […] inhibitor, and a NADPH-generating system. All inhibitors were dissolved in ethanol, and the final concentration of ethanol was 2% in all incubations. The reaction was initiated by adding the NADPH-regenerating system after a 10 min preincubation at 37°C, and after a 20 min incubation, the reaction was terminated by the addition of 110 μL of 80% acetonitrile/20% 0.5 M Tris base. The formed fluorescence was measured with a Victor2 plate counter (Perkin-Elmer Life Sciences Wallac, Turku, Finland) at 570 nm excitation and 616 nm emission.

[1] = dilution series 50 μM to 1 nM, read-out: MAO-B inhibition IC50

SMILES | MAO-A inhibition (in words) (MAO-A; 100 μM) | inhibition at 100 µM (MAO-A; 100 μM) [%] | HSD1 inhibition (in words) (recombinant human HSD1) | inhibition at 1 µM (recombinant human HSD1) [%] | inhibition at 10 µM (MAO-B) [%] | LiPE (MAO-B) | IC50 (MAO-B; MAO-B inhibition IC50, dilution series 50 μM to 1 nM) | IC50 (human CYP1A2) [µM] | IC50 (MAO-B; [1]) | MAO-A inhibition % (MAO-A) [%] | HSD1 inhibition % (recombinant human HSD1) [%] | MAO-B inhibition % (MAO-B) [%]
COc1ccc2oc(=O)c(-c3ccc(C(F)(F)F)cc3)cc2c1 [derivative 1, 6-methoxy-3-(4-(trifluoromethyl)phenyl)-2H-chromen-2-one] | does not produce MAO-A inhibition | 0 | does not inhibit HSD1 | 0 | 99.5 | 3.17 | ~0.056 µM and 0.05 to 0.06 µM and 0.056 µM | 124 |  |  |  | 
CC(=O)Oc1ccc2cc(-c3ccc(OC(F)(F)F)cc3)c(=O)oc2c1 [derivative 3, 2-oxo-3-(4-(trifluoromethoxy)phenyl)-2H-chromen-7-yl acetate] |  | 22 |  | 0 | 100 | 3.52 |  | 280 | ~0.141 µM and 0.141 µM |  |  | 
COc1ccc2oc(=O)c(-c3ccc(OC(F)(F)F)cc3)cc2c1 [derivative 4, 6-methoxy-3-(4-(trifluoromethoxy)phenyl)-2H-chromen-2-one] |  | 0 |  | 0 | 102 | 2.28 |  | 7 | 0.317 µM |  |  | 
COc1ccc2cc(-c3ccc(OC(C)=O)c(F)c3)c(=O)oc2c1 [derivative 6, 2-fluoro-4-(7-methoxy-2-oxo-2H-chromen-3-yl)phenyl acetate] |  | 0 |  | 21 | 99.9 | 4.25 |  |  | ~0.189 µM and 0.189 µM |  |  | 
CC(=O)Oc1ccc(-c2cc3cc(Cl)cc(Cl)c3oc2=O)cc1F [derivative 7, 4-(6,8-dichloro-2-oxo-2H-chromen-3-yl)-2-fluorophenyl acetate] |  | 0 |  | 0 | 91 | 2.69 |  | 46 | 0.888 µM |  |  | 
COc1cc(OC)cc(-c2cc3cc(OC)ccc3oc2=O)c1 [derivative 9, 3-(3,5-dimethoxyphenyl)-6-methoxy-2H-chromen-2-one] |  | 0 |  | 0 | 80.2 | 3.38 |  | 84 | ~0.255 µM and 0.255 µM |  |  | 
COc1ccc(-c2cc3cc(OC)ccc3oc2=O)cc1 [derivative 10, 6-methoxy-3-(4-methoxyphenyl)-2H-chromen-2-one] |  | 10.1 |  | 0 | 97.6 | 3.25 |  | 15 | 0.4 µM |  |  | 
COc1ccc(-c2cc3ccc(OC(C)=O)cc3oc2=O)cc1 [derivative 13, 3-(4-methoxyphenyl)-2-oxo-2H-chromen-7-yl acetate] |  | 2.48 |  | 0 | 85.9 | 3.30 |  | 570 | 1.95 µM |  |  | 
COc1ccc(-c2cc3cc(OC(C)=O)ccc3oc2=O)cc1 [derivative 14, 3-(4-methoxyphenyl)-2-oxo-2H-chromen-6-yl acetate] |  |  |  | 1 | 75.8 | 2.73 |  | 87.5 | 8.48 µM |  |  | 
CN(C)c1ccc(-c2cc3ccc(O)cc3oc2=O)cc1 [derivative 17, 3-(4-(dimethylamino)phenyl)-7-hydroxy-2H-chromen-2-one] |  | 4.74 |  | 5 | 90.1 | 3.62 |  | 35 | 0.384 µM |  |  | 
CC(=O)Oc1ccc2cc(-c3ccc(N(C)C)cc3)c(=O)oc2c1 [derivative 19, 3-(4-(dimethylamino)phenyl)-2-oxo-2H-chromen-7-yl acetate] |  | 0 |  | 15 | 85.4 | 3.27 |  | 370 | 0.866 µM |  |  | 
CC(=O)Oc1cccc2cc(-c3ccc(N(C)C)cc3)c(=O)oc12 [derivative 26] |  |  |  |  |  |  |  | 7 |  | 0.00 | 0.00 | 66.79
COc1ccc(-c2cc3cc(Cl)cc(Cl)c3oc2=O)cc1 [derivative 32] |  |  |  |  |  |  |  | 800 |  | 0.00 |  | 47.77
COc1cc(OC)cc(-c2cc3cc(Cl)cc(Cl)c3oc2=O)c1 [derivative 34] |  |  |  |  |  |  |  | 30 |  | 0.00 | 0.30 | 46.01
COc1ccc(-c2cc3cccc(OC(C)=O)c3oc2=O)cc1 [derivative 35] |  |  |  |  |  |  |  | 26 |  | 4.08 | 0.00 | 42.37
C#CCN(C)Cc1ccccc1 [pargyline, reference compound] |  |  |  |  | 102 |  |  |  |  |  |  | 
